test system: not listed separately; assay: In vitro liver microsome stability, mouse; format: in vitro ADME; details: liver microsomes, 0.5 mg/mL microsomes, 1 μM compound, NADPH, 37° C., read-out: Mouse liver microsomes Half-life T1/2
Protocol: (§1) The reference compound used in this experiment was Ketanserin, and the final concentration of microsomes in the experimental system was 0.5 mg/mL. The PBS buffer was a 50 mM K2HPO4 buffer. The concentration of the test compound was 1 μM. The microsomes were added to PBS, and the control/test compounds were respectively added to the corresponding reaction systems, mixed thoroughly, and pre-incubated in a 37° C. water bath for 5 minutes. The reaction was initiated by adding 20 mM NADPH solution under 37° C. water bath conditions (for the No NADPH samples, an equal volume of PBS solution was used as a substitute for the 20 mM NADPH solution). At the reaction time points of 0 min, 10 min, 30 mun, 60 min, and 90 min, 30 μL of reaction samples were taken from each reaction system (for the No NADPH samples, sampling was performed at 0 min and 90 min), and the reaction was immediately terminated by adding 300 μL of the internal standard acetonitrile solution. After centrifugation at 4000 rpm, the supernatant was taken and mixed thoroughly with an equal volume of pure water. The samples at each time point were analyzed by LC-MS/MS (AB Triple Quard 5500) to determine the compound content, and the T1/2 was calculated.

Compound	half-life at 1 μM
Cc1cnc(-c2cccc(C(N)=O)c2)cc1-n1c(C)cc(OCc2ncc(F)cc2F)c(Cl)c1=O [Compound 4]	2.93 h
Cc1cnc(-c2cccc(C(=O)O)c2)c(F)c1-n1c(C)cc(OCc2ncc(F)cc2F)c(Cl)c1=O [Compound 29-P1]	> 4.66 h

test system: not listed separately; assay: In vitro liver microsome stability, human; format: in vitro ADME; details: liver microsomes, 0.5 mg/mL microsomes, 1 μM compound, NADPH, 37° C., read-out: Human liver microsomes Half-life T1/2
Protocol: as §1

Compound	half-life at 1 μM
Cc1cnc(-c2cccc(C(N)=O)c2)cc1-n1c(C)cc(OCc2ncc(F)cc2F)c(Cl)c1=O [Compound 4]	> 4.66 h
Cc1cnc(-c2cccc(C(=O)O)c2)c(F)c1-n1c(C)cc(OCc2ncc(F)cc2F)c(Cl)c1=O [Compound 29-P1]	> 4.66 h

target: T1, p38 MAPK/ATF2 (Homo sapiens, UniProt Q16539); assay: In vitro activity assay of p38 MAPK/ATF2 (HTRF); format: biochemical; details: p38α, Human ATF2 Protein, ATP; 35 min at 20° C.
T1 construct: purchased Carna Biosciences (p38α); Sino Biological (ATF2) 04-152; 11599-H20B
Protocol: The inhibitory effect of the compound on p38a-catalyzed ATF2 was evaluated by the HTRF method. The test compound was dissolved in DMSO to obtain a 10 mM stock solution and stored at −20° C. for future use. The initial concentration of the compound was 10 μM, with 0.25% DMSO, 5-fold serial dilution, 8 concentrations, and duplicate wells. The reaction buffer, consisting of 40 mM Tris pH 7.5, 20 mM MgCl2, 0.1 mg/mL BSA, and 50 μM DTT, was used to prepare 3.5×p38α (MAPK14, Carna Biosciences, 04-152) protein working solution, 3.5×Human ATF2 Protein (Sino Biological, 11599-H20B) working solution, and 3.5×ATP working solution. The reaction was terminated with 10 mM EDTA. The final 14 μL reaction system was performed in a 96-well plate (cisbio, 66PL96025), containing 0.29 ng/μL p38a, […] Human ATF2 Protein, and 25 µM ATP. After reacting at 20° C. for 35 min, the pre-prepared antibody solution (cibio, 63ADK015PEG, Phospho-ATF2 Eu Cryptate antibody, Phospho-ATF2 d2 antibody, diluted 40-fold with Detection buffer) was added to each well and incubated overnight at room temperature. The samples were then measured using a microplate reader (HTRF compatible reader). The concentration-effect curve was fitted using GraphPad Prism 8 software, and the compound concentration resulting in 50% inhibition, IC50, was calculated.

Compound	IC50
Cc1cnc(-c2cccc(C(N)=O)c2)cc1-n1c(C)cc(OCc2ncc(F)cc2F)c(Cl)c1=O [Compound 4]	> 20 µM
Cc1cnc(-c2cccc(C(=O)O)c2)c(F)c1-n1c(C)cc(OCc2ncc(F)cc2F)c(Cl)c1=O [Compound 29-P1]	1.15 µM

target: T2, p38 MAPK/MK5 (Homo sapiens, UniProt Q16539); assay: In vitro activity assay of p38 MAPK/MK5 (Z-LYTE kinase assay kit); format: biochemical; details: active p38α, inactive MK5, Ser/Thr 4; 4-hour reaction at 20° C.
T2 construct: purchased Carna (p38α); Abcam (MK5) 04-152; 217826
T2 sequence (Q16539 whole entry): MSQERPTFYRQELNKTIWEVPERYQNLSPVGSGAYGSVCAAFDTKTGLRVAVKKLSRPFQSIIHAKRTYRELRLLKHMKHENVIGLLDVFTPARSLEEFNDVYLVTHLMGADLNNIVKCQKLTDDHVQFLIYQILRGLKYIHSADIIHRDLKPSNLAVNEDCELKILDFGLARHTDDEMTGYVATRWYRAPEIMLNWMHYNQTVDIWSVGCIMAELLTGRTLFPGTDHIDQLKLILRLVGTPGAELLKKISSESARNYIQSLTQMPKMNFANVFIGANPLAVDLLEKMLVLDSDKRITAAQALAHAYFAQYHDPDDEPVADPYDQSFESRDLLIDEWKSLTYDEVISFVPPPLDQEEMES
Protocol: (§2) The inhibitory effect of the compound on p38 MAPK/MK5 was evaluated using the Z-LYTE kinase assay kit (Thermo, PV3177). The test compound was dissolved in DMSO to obtain a 10 mM stock solution and stored at −20° C. for future use. The initial concentration of the compound was […], with 1% DMSO, 5-fold serial dilution, 8 concentrations, and duplicate wells. […] After a 4-hour reaction at 20° C., Development Reagent A diluted 2048-fold was added to each well, followed by incubation at room temperature for 1 hour. The reaction was terminated by adding 5 µL of stop buffer, and the plate was read using a microplate reader (Ex. 400 nm, Em. 445 nm; Ex. 400 nm, Em. 520 nm). The concentration-effect curve was fitted using GraphPad Prism 8 software, and the compound concentration resulting in 50% inhibition, IC50, was calculated.

Compound	IC50
Cc1cnc(-c2cccc(C(N)=O)c2)cc1-n1c(C)cc(OCc2ncc(F)cc2F)c(Cl)c1=O [Compound 4]	6.59 µM

test system: TNF-α in human PBMC cells; assay: In vitro TNF-α activity assay in human PBMC cell supernatant (LPS, ELISA); format: cell-based; details: Homo sapiens, PBMC, 24 h, LPS 100 ng/mL, read-out: p38 MAPK/TNF-α IC50
Protocol: The inhibitory effect of the compound on TNF-α in the supernatant of human PBMC cells was evaluated using an ELISA detection kit (Beyotime, PI518). The test compound was dissolved in DMSO to obtain a 10 mM stock solution and stored at −20° C. for future use. The initial concentration of the compound was […], followed by 5-fold serial dilution to obtain 6 concentrations. Cells were plated in duplicate, and ELISA was performed in single wells. The final concentration of DMSO was 0.4%. Alternatively, the initial concentration of the compound, dilution factor, number of concentration gradients, and replicates could be adjusted based on the specific screening conditions.
Fresh human peripheral blood mononuclear cells (PBMCs) (Sailybio) were seeded at a density of 2×10^5 cells per well in a 96-well plate (Corning, 3599), with each well containing 100 μL of RPMI-1640 (Gibco #A1049101)+10% FBS (Gibco, 10099141C), and incubated overnight at 37° C. under 5% CO2. Test compounds were added to the 96-well culture plate at a volume of 25 μL per well. After 1 hour, 5 μL of LPS was added to achieve a final concentration of 100 ng/mL. No LPS and compound were added to the negative control wells, and no compound was added to the positive control wells. The mixture was further incubated for 24 hours at 37° C. under 5% CO2. Subsequently, the cell culture supernatant was collected by centrifugation at 500 rcf for 8 minutes. The concentration of TNF-α was measured according to the operation manual of the ELISA kit. The concentration-effect curve was fitted using GraphPad Prism 8 software, and the compound concentration resulting in 50% inhibition, IC50, was calculated.

Compound	IC50
Cc1cnc(-c2cccc(C(N)=O)c2)cc1-n1c(C)cc(OCc2ncc(F)cc2F)c(Cl)c1=O [Compound 4]	0.0967 µM

test system: not listed separately; assay: In vitro liver microsome stability, rat; format: in vitro ADME; details: liver microsomes, 0.5 mg/mL microsomes, 1 μM compound, NADPH, 37° C., read-out: Rat liver microsomes Half-life T1/2
Protocol: as §1

Compound	half-life at 1 μM
Cc1cnc(-c2cccc(C(N)=O)c2)cc1-n1c(C)cc(OCc2ncc(F)cc2F)c(Cl)c1=O [Compound 4]	> 4.66 h
Cc1cnc(-c2cccc(C(=O)O)c2)c(F)c1-n1c(C)cc(OCc2ncc(F)cc2F)c(Cl)c1=O [Compound 29-P1]	> 4.66 h

target: T3, p38 MAPK/MK2 (Homo sapiens, UniProt Q16539); assay: In vitro activity assay of p38 MAPK/MK2 (Z-LYTE kinase assay kit); format: biochemical; details: active p38α, inactive MK2, Ser/Thr 4; 1-hour reaction at 20° C.
T3 construct: purchased Carna (p38α); Abcam (MK2) 04-152; 79910
T3 sequence (Q16539 whole entry): as above
T3 sequence (P49137 whole entry partner): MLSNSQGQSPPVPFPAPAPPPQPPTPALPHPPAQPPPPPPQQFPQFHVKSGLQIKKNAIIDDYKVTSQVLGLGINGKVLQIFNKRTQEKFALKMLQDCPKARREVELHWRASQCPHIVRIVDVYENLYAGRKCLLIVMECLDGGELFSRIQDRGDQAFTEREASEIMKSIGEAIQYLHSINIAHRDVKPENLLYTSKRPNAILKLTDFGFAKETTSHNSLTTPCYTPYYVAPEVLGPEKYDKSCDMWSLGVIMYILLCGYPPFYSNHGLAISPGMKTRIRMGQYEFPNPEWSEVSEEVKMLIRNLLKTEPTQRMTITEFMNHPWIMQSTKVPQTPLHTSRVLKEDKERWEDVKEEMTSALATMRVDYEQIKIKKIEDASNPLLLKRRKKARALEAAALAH
Protocol: as §2, with “MAPK/MK2” for “MAPK/MK5”, “1-hour” for “4-hour”, “μL” for “µL”

Compound	IC50
Cc1cnc(-c2cccc(C(N)=O)c2)cc1-n1c(C)cc(OCc2ncc(F)cc2F)c(Cl)c1=O [Compound 4]	0.0505 µM
Cc1cnc(-c2cccc(C(=O)O)c2)c(F)c1-n1c(C)cc(OCc2ncc(F)cc2F)c(Cl)c1=O [Compound 29-P1]	0.00486 µM

test system: not listed separately; assay: Pharmacokinetic evaluation in mice; format: in vivo; details: mouse, plasma, intravenous injection group 1 mg/kg, read-out: Area under curve AUC0-24 h
Protocol: The compound was weighed and dissolved in a mixed solvent of DMAC: Solutol: PBS (1:1:8. After intravenous/gastric administration to mice, whole blood ([…]) was collected at 0.083, 0.25, 0.5, 1, 2, 4, 7, and 24 hours. The samples were anticoagulated with EDTA-K2, immediately centrifuged at 4000 rpm for 5 minutes at 4° C., and the supernatant was frozen in a −80° C. refrigerator. Plasma sample processing: The samples were precipitated with an internal standard-containing CH3CN precipitant, followed by centrifugation at 12700 rpm for 10 min. The supernatant was collected and analyzed by LC-MS/MS (AB Triple Quard 5500) to obtain the plasma drug concentration. The parameters were calculated using a non-compartmental model in Winnolin version 8.1.

Compound	AUC(0-t)
Cc1cnc(-c2cccc(C(=O)O)c2)c(F)c1-n1c(C)cc(OCc2ncc(F)cc2F)c(Cl)c1=O [Compound 29-P1]	1390 ng·h/mL

same assay, conditions: mouse, plasma, intravenous injection group 1 mg/kg, read-out: Clearance CL (converted)

Compound	clearance
Cc1cnc(-c2cccc(C(=O)O)c2)c(F)c1-n1c(C)cc(OCc2ncc(F)cc2F)c(Cl)c1=O [Compound 29-P1]	10.4 mL/min/kg

same assay, conditions: mouse, plasma, intravenous injection group 1 mg/kg, read-out: Half-life T1/2 (converted)

Compound	half-life
Cc1cnc(-c2cccc(C(=O)O)c2)c(F)c1-n1c(C)cc(OCc2ncc(F)cc2F)c(Cl)c1=O [Compound 29-P1]	2.57 h

same assay, conditions: mouse, plasma, intravenous injection group 1 mg/kg, read-out: Initial concentration C0

Compound	C0
Cc1cnc(-c2cccc(C(=O)O)c2)c(F)c1-n1c(C)cc(OCc2ncc(F)cc2F)c(Cl)c1=O [Compound 29-P1]	1450 ng/mL

same assay, conditions: mouse, plasma, intravenous injection group 1 mg/kg, read-out: Volume of distribution Vd

Compound	Vd
Cc1cnc(-c2cccc(C(=O)O)c2)c(F)c1-n1c(C)cc(OCc2ncc(F)cc2F)c(Cl)c1=O [Compound 29-P1]	1.83 L/kg

same assay, conditions: mouse, plasma, po, intragastric administration group 5 mg/kg, read-out: Area under curve AUC0-24 h

Compound	AUC(0-t)
Cc1cnc(-c2cccc(C(=O)O)c2)c(F)c1-n1c(C)cc(OCc2ncc(F)cc2F)c(Cl)c1=O [Compound 29-P1]	6490 ng·h/mL

same assay, conditions: mouse, plasma, po, intragastric administration group 5 mg/kg, read-out: Bioavailability F %

Compound	bioavailability
Cc1cnc(-c2cccc(C(=O)O)c2)c(F)c1-n1c(C)cc(OCc2ncc(F)cc2F)c(Cl)c1=O [Compound 29-P1]	80.6%

same assay, conditions: mouse, plasma, po, intragastric administration group 5 mg/kg, read-out: Half-life T1/2 (converted)

Compound	half-life
Cc1cnc(-c2cccc(C(=O)O)c2)c(F)c1-n1c(C)cc(OCc2ncc(F)cc2F)c(Cl)c1=O [Compound 29-P1]	3.37 h

same assay, conditions: mouse, plasma, po, intragastric administration group 5 mg/kg, read-out: Maximum concentration Cmax

Compound	Cmax
Cc1cnc(-c2cccc(C(=O)O)c2)c(F)c1-n1c(C)cc(OCc2ncc(F)cc2F)c(Cl)c1=O [Compound 29-P1]	1380 ng/mL

From patent publication US20260217652A1, “PHENYL-SUBSTITUTED HETEROARYL COMPOUND AND PHARMACEUTICAL COMPOSITION COMPRISING SAME, PREPARATION METHOD THEREFOR AND USE THEREOF” (SHANGHAI MEIYUE BIOTECH DEVELOPMENT CO., LTD., priority 2023, published 2026)
